Measured values as given in US20220313656A1, “NEW CLASS OF ANTIBIOTICS HAVING LOW MIC-VALUES TOWARDS DIFFERENT STRAINS OF BACTERIA” (priority 2019, published 2022).
Read-outs that look alike come from different tables or passages of the source.

Legend:
Assay in all cases: MIC, serial dilution method (CLSI)
S. aureus CC398 = type: cell-based, Staphylococcus aureus
Experimental: (§1) These inoculums were each in diluted 1:100 in Müller Hinton (MH) broth (Sigma, Copenhagen, Denmark). From the diluted inoculums 100 μl was transferred to each well in a 96-well plate and mixed with the compound to be MIC determined. The plate was incubated for 24 hours at 37° C. (without shaking). The MIC value was determined as the lowest concentration in which no bacterial growth could be visually detected. All MIC determinations were done in duplicates. […] Since all derivatives are new, no control strains (with reference MIC values) were available.

S. aureus USA300 = type: cell-based, Staphylococcus aureus
Experimental: as §1

E. faecalis = type: cell-based, Enterococcus faecalis
Experimental: as §1

E. coli APEC O2 = type: cell-based, Escherichia coli
Experimental: as §1

[1] = system: Staphylococus pseudintermedius; type: cell-based, Staphylococcus pseudintermedius
Experimental: as §1

E. faecium = type: cell-based, Enterococcus faecium
Experimental: as §1

Bacillus cereus = type: cell-based
Experimental: as §1

Listeria monocytogenes = type: cell-based
Experimental: as §1

Salmonella enteritidis = type: cell-based
Experimental: as §1

Streptococcus equi = type: cell-based
Experimental: as §1

[2] = S. aureus CC398 (MRSA strain), MH broth, 24 hours at 37° C., set to 256 if growth at […]
[3] = S. aureus USA300, MH broth, 24 hours at 37° C., set to 256 if growth at […]
[4] = E. faecalis, MH broth, 24 hours at 37° C., set to 256 if growth at […]
[5] = E. coli APEC O2, MH broth, 24 hours at 37° C., set to 256 if growth at […]
[6] = Staphylococus pseudintermedius, MH broth, 24 hours at 37° C., set to 256 if growth at […]
[7] = E. faecium, MH broth, 24 hours at 37° C., set to 256 if growth at […]
[8] = MH broth, 24 hours at 37° C., set to 256 if growth at […]
[9] = Salmonella enteritidis, MH broth, 24 hours at 37° C., set to 256 if growth at […]
[10] = Staphylococcus aureus, MRSA, 24 h, read-out: MIC
[11] = Staphylococcus aureus, USA300, 24 h, read-out: MIC
[12] = Enterococcus faecalis, 24 h, read-out: MIC
[13] = Escherichia coli, APECO2, 24 h, read-out: MIC
[14] = Staphylococcus pseudintermedius, 24 h, read-out: MIC
[15] = Enterococcus faecium, 24 h, read-out: MIC
[16] = Salmonella enterica, ENTERITIDIS, 24 h, read-out: MIC

MIC (S. aureus CC398; [2]) [mg/L]	MIC (S. aureus USA300; [3])	MIC (E. faecalis; [4]) [mg/L]	MIC (E. coli APEC O2; [5]) [mg/L]	MIC [1, 6] [mg/L]	MIC (E. faecium; [7]) [mg/L]	MIC (Bacillus cereus; [8]) [mg/L]	MIC (Listeria monocytogenes; [8]) [mg/L]	MIC (Salmonella enteritidis; [9]) [mg/L]	MIC (Streptococcus equi; [8]) [mg/L]	MIC (S. aureus CC398; [10]) [mg/L]	MIC (S. aureus USA300; [11]) [µg/mL]	MIC (E. faecalis; [12]) [mg/L]	MIC (E. coli APEC O2; [13]) [mg/L]	MIC [1, 14] [mg/L]	MIC (E. faecium; [15]) [mg/L]	MIC (Bacillus cereus; 24 h, read-out: MIC) [mg/L]	MIC (Listeria monocytogenes; 24 h, read-out: MIC) [mg/L]	MIC (Salmonella enteritidis; [16]) [mg/L]	MIC (Streptococcus equi; 24 h, read-out: MIC) [mg/L]	Structure (SMILES)
64	64 µg/mL	64	128	32	32	128	64	64	32	–	–	–	–	–	–	–	–	–	–	CCOC(=O)CC[N+](C)(C)CCCN1c2ccccc2Sc2ccc(Cl)cc21 [Chlorpromazine 3-Ethoxy-3-oxo-1-propyl]
4	8 µg/mL	16	64	2	16	4	8	64	2	–	–	–	–	–	–	–	–	–	–	C[N+](C)(CCCN1c2ccccc2Sc2ccc(Cl)cc21)Cc1ccccc1 [Chlorpromazine Benzyl]
16	16 µg/mL	128	128	8	64	32	32	128	8	–	–	–	–	–	–	–	–	–	–	C=CC[N+](C)(C)CCC=C1c2ccccc2Sc2ccc(Cl)cc21 [Chlorprothixene 2-Propene-1-yl]
8	8 µg/mL	128	128	8	64	8	8	128	8	–	–	–	–	–	–	–	–	–	–	COC(=O)CCCCC[N+](C)(C)CCC=C1c2ccccc2Sc2ccc(Cl)cc21 [Chlorprothixene 6-Methoxy-6-oxo-1-hexyl]
2	4 µg/mL	16	64	2	16	16	32	64	2	–	–	–	–	–	–	–	–	–	–	C[N+](C)(CCC=C1c2ccccc2Sc2ccc(Cl)cc21)Cc1ccccc1 [Chlorprothixene Benzyl]
–	–	–	–	–	–	–	–	–	–	32	32	128	256	8	32	32	64	256	16	C[N+](C)(C)CCCN1c2ccccc2Sc2ccc(Cl)cc21.[I-] [Compound S2, 3-(2-chloro-10H-phenothiazin-10-yl)-N,N,N-trimethylpropan-1-aminium iodide]
–	–	–	–	–	–	–	–	–	–	16	16	128	256	8	32	32	32	256	16	CC[N+](C)(C)CCCN1c2ccccc2Sc2ccc(Cl)cc21.[Br-] [Compound S3, 3-(2-chloro-10H-phenothiazin-10-yl)-N-ethyl-N,N-dimethylpropan-1-aminium bromide]
–	–	–	–	–	–	–	–	–	–	16	16	128	128	8	64	32	32	128	32	CC(C)[N+](C)(C)CCCN1c2ccccc2Sc2ccc(Cl)cc21.[Br-] [Compound S4, 3-(2-chloro-10H-phenothiazin-10-yl)-N-isopropyl-N,N-dimethylpropan-1-aminium bromide]
–	–	–	–	–	–	–	–	–	–	16	16	32	128	8	32	64	32	128	8	CC(C)CC[N+](C)(C)CCCN1c2ccccc2Sc2ccc(Cl)cc21.[Br-] [Compound S5, N-(3-(2-chloro-10H-phenothiazin-10-yl)propyl)-N,N,3-trimethylbutan-1-aminium bromide]
–	–	–	–	–	–	–	–	–	–	64	64	128	256	32	64	64	64	256	32	CCCCC[N+](C)(C)CCCN1c2ccccc2Sc2ccc(Cl)cc21.[Br-] [Compound S6, N-(3-(2-chloro-10H-phenothiazin-10-yl)propyl)-N,N-dimethylpentan-1-aminium bromide]
–	–	–	–	–	–	–	–	–	–	128	128	128	128	64	256	256	128	256	64	CC(CN1c2ccccc2Sc2ccccc21)N(C)C.Cl (centres unmarked) [Compound S12, N,N-dimethyl-1-(10H-phenothiazin-10-yl)propan-2-amine hydrochloride, reference compound]
–	–	–	–	–	–	–	–	–	–	128	128	256	256	64	128	128	256	128	32	CC(CN1c2ccccc2Sc2ccccc21)[N+](C)(C)C.[I-] (centres unmarked) [Compound S13, N,N,N-trimethyl-1-(10H-phenothiazin-10-yl)propan-2-aminium iodide]
–	–	–	–	–	–	–	–	–	–	64	128	256	256	32	128	256	32	256	32	CC[N+](C)(C)C(C)CN1c2ccccc2Sc2ccccc21.[Br-] (centres unmarked) [Compound S14, N-ethyl-N,N-dimethyl-1-(10H-phenothiazin-10-yl)propan-2-aminium bromide]
–	–	–	–	–	–	–	–	–	–	16	64	128	128	32	128	128	128	128	256	CC(C)[N+](C)(C)C(C)CN1c2ccccc2Sc2ccccc21.[Br-] (centres unmarked) [Compound S15, N-isopropyl-N,N-dimethyl-1-(10H-phenothiazin-10-yl)propan-2-aminium bromide]
–	–	–	–	–	–	–	–	–	–	16	16	64	64	8	64	16	32	128	8	CC(C)CC[N+](C)(C)C(C)CN1c2ccccc2Sc2ccccc21.[Br-] (centres unmarked) [Compound S16, N-(1-(10H-phenothiazin-10-yl)propan-2-yl)-N,N,3-trimethylbutan-1-aminium bromide]
–	–	–	–	–	–	–	–	–	–	32	8	32	64	4	16	8	8	64	4	CCCCC[N+](C)(C)C(C)CN1c2ccccc2Sc2ccccc21.[Br-] (centres unmarked) [Compound S17, N-(1-(10H-phenothiazin-10-yl)propan-2-yl)-N,N-dimethylpentan-1-aminium bromide]
–	–	–	–	–	–	–	–	–	–	16	16	128	256	8	64	16	32	128	8	CSc1ccc2c(c1)N(CCC1CCCC[N+]1(C)C)c1ccccc1S2.[I-] (centres unmarked) [Compound S24, 1,1-dimethyl-2-(2-(2-(methylthio)-10H-phenothiazin-10-yl)ethyl)piperidin-1-ium iodide]
–	–	–	–	–	–	–	–	–	–	–	4	–	–	–	–	–	–	–	–	CCCCCCCCCCCC[N+](C)(C)CC/C=C1/c2ccccc2Sc2ccc(Cl)cc21.[Br-] [Compound S39, (Z)—N-(3-(2-chloro-9H-thioxanthen-9-ylidene)propyl)-N,N-dimethyldodecan-1-aminium bromide]
–	8/16	–	–	–	–	–	–	–	–	–	–	–	–	–	–	–	–	–	–	CCCCCCCCCCCCCC[N+](C)(C)C(C)CN1c2ccccc2Sc2ccccc21.[Br-] (centres unmarked) [Compound S44, N-(1-(10H-phenothiazin-10-yl)propan-2-yl)-N,N-dimethyltetradecan-1-aminium bromide]

Structure (SMILES)	MIC (S. aureus CC398; [2]) [mg/L]	MIC (S. aureus USA300; [3])	MIC (E. faecalis; [4]) [mg/L]	MIC (E. coli APEC O2; [5]) [mg/L]	MIC [1, 6] [mg/L]	MIC (E. faecium; [7]) [mg/L]	MIC (Bacillus cereus; [8]) [mg/L]	MIC (Listeria monocytogenes; [8]) [mg/L]	MIC (Salmonella enteritidis; [9]) [mg/L]	MIC (Streptococcus equi; [8]) [mg/L]	MIC (S. aureus CC398; [10]) [mg/L]	MIC (S. aureus USA300; [11]) [µg/mL]	MIC (E. faecalis; [12]) [mg/L]	MIC (E. coli APEC O2; [13]) [mg/L]	MIC [1, 14] [mg/L]	MIC (E. faecium; [15]) [mg/L]	MIC (Bacillus cereus; 24 h, read-out: MIC) [mg/L]	MIC (Listeria monocytogenes; 24 h, read-out: MIC) [mg/L]	MIC (Salmonella enteritidis; [16]) [mg/L]	MIC (Streptococcus equi; 24 h, read-out: MIC) [mg/L]
CC(C)=CCCC(C)CC[N+](C)(C)C(C)CN1c2ccccc2Sc2ccccc21.Cc1ccc(S(=O)(=O)[O-])cc1 (centres unmarked) [Compound S45, N-(1-(10H-phenothiazin-10-yl)propan-2-yl)-N,N,3,7-tetramethyloct-6-en-1-aminium 4-methylbenzenesulfonate]	–	–	–	–	–	–	–	–	–	–	–	4	–	–	–	–	–	–	–	–
